Measurements reported in US9689040B2, “Selective inhibitors of tumor-initiating cells” (Children's Medical Center Corporation, priority 2011, dated 2017).
“Also recorded” adds a separate entry of the source.

What was measured:
proteasome = proteasome (Homo sapiens, UniProt P28074); experiment: Proteasome activity in BPLER and HMLER cells (ProteaGlo assay); conditions: 6 hr after treatment
[1] = test system: epithelial TNBC / basal-like cells (MB-468, HCC-1143, HCC-1937, 4T1-E); experiment: cells; conditions: 24 h, read-out: decrease of cell viability
BPLER tumors = experiment: BPLER tumor xenografts in Nu/J mice (tumor volume, tumor weight); format: in vivo, mouse
Procedure: We first assessed the effect of bortezomib on pre-established subcutaneous BPLER xenografts in nude mice. […] To reduce experimental variability, we selected mice bearing tumors of homogenous size (˜[…] in diameter after 3 weeks from injection), which were randomized into two groups. Each group received 6 doses of either vehicle (DMSO) or bortezomib at 0.5 mg/kg i.p. q3d over a 16-day period, respectively. At the end of the treatment period, mice were sacrificed and tumor weight was assessed.
Bortezomib is already in the clinic for treatment of multiple myeloma and other lymphomas. To start investigating potential clinical efficacy in TNBC, BPLER tumor-bearing mice were given 1 dose (0.8 mg/kg) of bortezomib intratumorally (i.t.), intraperitoneally (i.p) or intravenously (i.v.) and proteasome activity in the tumor was assessed after 18 hours (FIG. 6A). […] To assess therapeutic efficacy, we administered bortezomib every 3 days (0.8 mg/kg i.t.) or weekly (1.6 mg/kg i.v.) after BPLER tumors, implanted in the flank of Nu/J mice, became palpable. BPLER tumor outgrowth was assessed by tumor volume during the treatment period and by tumor weight at the time of sacrifice.
All animal procedures were performed with IACUC approval. Exponentially growing cells were trypsinized with TRYPLE EXPRESS (Invitrogen), resuspended in a 1:1 WIT-Matrigel solution at the indicated numbers, and injected subcutaneously in the flank of 4-week old female Nu/J mice (Stock #002019, Jackson Laboratories). […] Mice were sacrificed 16 days after beginning treatment and tumor weight was assessed.

BPLER cells [2] = experiment: Cell viability after drug treatment (CellTiterGlo / Trypan-Blue); format: cell-based, human
[3] = test system: mesenchymal MDA-MB-231 and MDA-MB-436 cells; conditions: MB-231, MB-436
BPE cells = experiment: Apoptosis (Annexin V/PI flow cytometry, caspase 3 and PARP cleavage immunoblot); format: cell-based, human; conditions: clinically relevant / low dose, 24 hours
Procedure: (§1) BPLER were used as control. […] The percentage of double-positive cells is indicated.
(§2) To further define factors underlying such properties of BPLER cells, we first determined the molecular mechanism by which proteasome inhibition affects the growth of these cells.
(§3) Immunoblot was performed as described^41. Primary antibodies were as follows: cleaved Caspase 3 (Cell Signaling, rabbit polyclonal, 1:1000), PARP1 (Santa Cruz, rabbit polyclonal, 1:500), MCL1 (Cell Signaling, Rabbit polyclonal, 1:1000), Bim (Santa Cruz, rabbit polyclonal, 1:500), Bik (Cell Signaling, rabbit polyclonal, 1:1000), Puma (Cell Signaling, rabbit polyclonal, 1:1000), Noxa (Calbiochem, mouse monoclonal, 1:500), Bid (Santa Cruz, rabbit polyclonal, 1:500), Bad (Santa Cruz, rabbit polyclonal, 1:500). Antibodies were diluted in 5% milk in TBS-T and incubated O.N. at 4° C. Secondary mouse and rabbit HRP-conjugated antibodies were from Amersham. Protein signal was detected using the ECL Plus kit (Amersham). For flow cytometry, cells were stained as previously described^33, using the following fluorescent-conjugated antibodies: CD44 (BD Biosciences), CD24 (BD Biosciences), CD326 (ESA, Biolegend), Annexin V (Invitrogen). For immunofluorescence microscopy, cells were fixed in 2% PFA for 10 min, permeabilized with 1% Triton X in PBS for 5 min, and incubated with primary antibodies in 0.5% Triton X, 1% FBS in PBS for 30 min at RT. Antibodies were: CK18 (Santa Cruz, mouse monoclonal, 1:100) and CK14 (Millipore, mouse monoclonal, 1:100). After washing the cells were stained sequentially with AlexaFluor647-conjugated secondary antibody (Invitrogen, 1:200) and DAPI (Sigma, 1:5000). For immunohistochemistry, BPLER tumor sections were prepared from paraffin-embedded tissues, deparaffinized and treated with 10% citrate buffer for 15 min. Staining was performed using a BIOGENEX IHC DAB kit (Biogenex) following the manufacturer's protocol. Primary antibodies were: CK14 (Millipore, mouse monoclonal, 1:100), CK5 (Millipore, mouse monoclonal, 1:100), HH3 (Cell Signaling, rabbit polyclonal, 1:100), ER (Abcam, mouse monoclonal, 1:100), Vimentin (Invitrogen, mouse monoclonal 1:100), Ki67 (Millipore, mouse monoclonal, 1:100).

BPLER cells [4] = experiment: as above; format: cell-based, human; conditions: clinically relevant / low dose, 24 hours
Procedure: as §1, §2, §3

HMLER cells = experiment: as above; format: cell-based, human; conditions: clinically relevant / low dose, 24 hours
Procedure: as §1, §2, §3

Chain of proteasome (P28074 60-263): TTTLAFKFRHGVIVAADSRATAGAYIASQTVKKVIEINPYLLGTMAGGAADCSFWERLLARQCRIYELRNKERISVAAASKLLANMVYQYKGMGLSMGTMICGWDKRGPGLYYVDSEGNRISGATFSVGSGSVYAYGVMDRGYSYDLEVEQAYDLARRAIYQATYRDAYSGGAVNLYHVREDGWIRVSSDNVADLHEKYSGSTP

For CC(C)C[C@H](NC(=O)[C@H](Cc1ccccc1)NC(=O)c1cnccn1)B(O)O [bortezomib], the “proteasomal activity in BPLER and HMLER” value (proteasome) was “similarly inhibited proteasome activity”, the cytotoxicity at 0.0125 µM [1] was 50 to 65% and the “reduction of median tumor weight” value (BPLER tumors; 0.5 mg/kg i.p. q3d, 6 doses, after 16 days) was 54%. The “tumors smaller than in control mice (tumor volume, average)” value (BPLER tumors; 0.8 mg/kg i.t. every 3 days) was 85%, the “tumors weighed less than in control mice (average)” value (BPLER tumors; 0.8 mg/kg i.t. every 3 days) was 91% and the “tumors smaller than in control mice (tumor volume, average)” value (BPLER tumors; 1.6 mg/kg i.v. weekly) was 59%. The “tumors weighed less than in control mice (average)” value (BPLER tumors; 1.6 mg/kg i.v. weekly) was 63%, the “Noxa induction and caspase 3 cleavage in tumors” value (BPLER tumors; immunohistochemistry and western blot) was “induced Noxa induction and caspase 3 cleavage in vivo” and the “sensitivity of BPLER relative to HMLER cells (viability)” value (BPLER cells [2]; increasing doses, 24 hr) was “more sensitive”. The “response of BPLER cells at confluence” value (BPLER cells [2]; non-dividing (confluent) cells) was “became resistant”, the “sensitivity of mesenchymal breast cancer cell lines” value [3] was “resistant” and the “apoptosis (cleavage of caspase 3 and PARP)” value (“apoptosis” for short) (BPE cells) was “resistant to bortezomib-induced apoptosis”. The “apoptosis” value (BPLER cells [4]) was “marked cleavage; also recorded: died of apoptosis” and the “apoptosis” value (HMLER cells) was “only partially; also recorded: minimal signs of apoptosis”.
